The values that follow come from EP0812857A1, “Irreversible HIV protease inhibitors, compositions containing same and process for the preparation thereof” (LG Chemical Limited, priority 1996, dated 1997).

In one series the target is T1, HIV-1 protease (Human immunodeficiency virus type 1 group M subtype B, UniProt P04585).
T1 construct: addition of 2.6nM of HIV-1 protease
Description: Assay for inhibitory effect on HIV protease (irreversible inhibition kinetics, HPLC readout). The class given is biochemical. The note with it: second order rate constant; 2.6nM HIV-1 protease, pH 5.5; KINSIM/FITSIM fit; exact values hard to calculate above 10^9. The procedure: The inhibitory effect on HIV protease of the compounds of the present invention was determined by the following method.
To a buffer solution comprising 50mM sodium acetate, pH 5.5, 1mM dithiothreitol (DTT), 1mM ethylenediaminetetra-acetate (EDTA), 0.75M ammonium sulfate, 0.2M sodium chloride and 0.1% NP40(NONIGET P-40; Sigma Chemical Co., U.S.A.), were added various concentrations of a compound selected from the compound obtained in Examples 1 to 9 to prepare a preincubation solution. Inhibition reaction was started with the addition of 2.6nM of HIV-1 protease to the preincubation solution. Each 10µl of the reaction solution was taken at a given time interval and added to 80µl of assay solution containing 100µM of reaction substrate in the same buffer solution as the above to assay for the residual enzyme activity. In this context, an oligopeptide(KM=20µM) consisting of 11 amino acids, i.e., Ser-Ile-Ala-Glu-(p-NO2)-Phe-Leu-Val-Arg-Ala-Lys-His, was used as a reaction substrate, which oligopeptide was to be cleaved in two by the breakage of amide bond between (P-NO2)-Phe and Leu upon the attack of HIV protease. The reaction rate was determined by subjecting the substrate before the reaction and the product after the reaction to HPLC separation and then measuring the relative amount of the product, using the strong absorbance of (p-NO2)-Phe at 280nm. The amounts of reduction in enzyme activity according to the elasped time were measured and the natural logarithmic values(ln) of the measured amounts were plotted against time to obtain a linear graph and kobs was calculated from the slope of the linear graph.
The inhibition constant was calculated according to the following equation: (1)/(kobs)=(1)/(kina)+(KI)/(kina)(1)/([I]) [formula] wherein: kobs is a rate constant indicating the rate of reduction in enzyme activity according to the elapsed time under the presence of a given concentration of inhibitor, kina is a rate constant indicating the rate of chemical reaction forming covalent bond between an enzyme and an inhibitor in Michaelis-Menten complex, KI is an inhibition constant indicating the dissociation rate of Michaelis-Menten complex into an enzyme and an inhibitor, and [I] means the inhibitor concentration.
The above equation is applicable to an experiment carried out under the condition in which the concentration of inhibitor is fear higher than that of enzyme (Steady State Kinetic). […] The inhibition constants KI and kina and second order rate constant kina/KI were obtained by inputting the value of [E]/([E]+[EI]+[EI']) [formula] into KINSIM/FITSIM program.

In another series the test system is HIV-1. Description: Anti-viral activity: syncytium formation (Sup T1) or reverse transcriptase assay (H9). The class given is cell-based. The note with it: Human immunodeficiency virus 1; concentration that inhibits the proliferation of HIV by 50%; H9 and Sup T1 cell lines, 200 TCID50 HIV-1; cell line not given; read-out: IC. The protocol: The anti-viral activity of the compounds of the present invention was determined by measuring the concentration of the compounds that inhibits the proliferation of HIV by 50%(IC50) through a survey for syncytium formation or reverse transcriptase assay.
1 x 10^5 cells of each of H9(ATCC HTB 176) and Sup T1 cell lines were added to the wells of a 24-well microtiter plate and various concentrations of the compounds of the present invention were added thereto. 200 TCID50(200-fold of 50% tissue culture infection dose) of HIV-1 inoculum and rpmi-1640 medium(Sigma Chemical Co., U.S.A) were added successively to the wells and the plate was incubated at 37°C. In case of Sup T1, the number of syncytium formed was investigated after 3 to 9 days. IC50 of each compound was determined by measuring the concentration of inhibitor that can reduce the number of syncytium by 50% compared with those formed in the same condition without the inhibitor.
In case of H9, three-quarters(3/4) of the culture medium in volume was refreshed every 3 days; and after 9 days, 6ml of the culture fluid was taken and 2.5ml of 30% polyethyleneglycol(PEG, M.W. 6000-8000) and 0.4M NaCl were added thereto. The resulting solution was allowed to stand at 0°C overnight to precipitate virus particles. The solution was centrifuged at 2000rpm for 45 minutes, the supernatant was discarded therefrom and the precipitate was diluted with 20µl of a reverse transcriptase suspension buffer(50mM tris-HCl, pH 7.5, 1mM dithiothreitol, 20% glycerol, 0.25M KCl and 0.25% Triton X-100). The resulting suspension was stored in an Effendorf tube at -70°C until used. A procedure of freezing said virus suspension for 2 minutes in dry ice and thawing same at 37°C for 2 minutes was repeated three times and the resulting suspension was centrifuged at 4°C. The resulting supernatant was used in carrying out the reverse transcriptase assay.
10µl of the said viral suspension was added to a solution of: 10µl of buffer solution(250mM tris-HCl, pH 7.5, 37.5mM MgCl2, 0.25% triton X-100), 1.2µl of 200mM dithiothreitol, 5µl of 100µM oligo(dT)-poly(A)(Boeringer Manheim, 12-18 oligomer), 1µl(1µCi) of ^3H-TTP(Thymidinetri-phosphate) and 23.6µl of water; and the resulting mixture was placed at 37°C. After 1 hour, the mixture was poured onto a WHATMAN DEB1 filter and the filter was washed three times with 5ml of 2 x SSC buffer solution(17.53g of sodium chloride, 8.82g of sodium citrate, pH 7.0, 1 liter of water) for about 10 minutes each time and twice with 95% methanol for 10 seconds. The filter was put onto aluminium foil and dried with an infrared lamp. The amount of radioactivity was counted using a liquid scintillation counter.

A short description of another series: in vitro. The note with it: human, h9 or sup t1 cells. The procedure:
To determine the cytotoxicity of the compounds of the present invention, 0.1µM to 100µM of the novel compounds were added to H9 cell or Sup T1 cell and the mixture was cultured on a rpmi-1640 medium at 37°C. The medium was refreshed every 3 days and the extent of cell proliferation was observed using Hemacytometer according to the trypan blue dye exclusion technique which is well known in the art. CT50(i.e., concentration that causes death of cells by 50%) was determined. As control compounds, azidothymidine(AZT, Burrows-Wellcome Co.) and Ro-31 8959(Hoffmann-La Roche AG) were used. […]

For the compound `CC(C)C(NS(=O)(=O)CC[C@@H]1O[C@@H]1[C@H](Cc1ccccc1)NC(=O)[C@@H](NC(=O)OCc1ccccc1)C(C)(C)S(C)(=O)=O)C(C)C` [Ex. 9, N-(2,4-dimethyl-3-pentyl)-5S-[N-(2-benzyloxycarbonyl)-β-methanesulfonyl-L-valinyl]amino-(4R,3S)-epoxy-6-phenylhexanesulfonamide], the inactivation efficiency (kinact/KI) at HIV-1 protease was 1.67e+07 to 1.67e+08 M⁻¹ s⁻¹. Besides, in the series with HIV-1, the IC50 amounted to 10 nM. This compound gave a CC50 in “in vitro” of over 10000 nM.

Consider `CCN(c1ccccc1)S(=O)(=O)CC[C@@H]1O[C@@H]1[C@H](Cc1ccccc1)NC(=O)[C@@H](NC(=O)c1ccc2ccccc2n1)C(C)(C)S(C)(=O)=O` [Ex. 6, N-ethyl-N-phenyl-5S-[N-(2-quinolinecarbonyl)-β-methanesulfonyl-L-valinyl]amino-(4R,3S)-epoxy-6-phenylhexanesulfonamide], for which, on HIV-1 protease, the kinact/KI is 1.67e+07 to 1.67e+08 M⁻¹ s⁻¹. Further, the IC50 with HIV-1 came out at 5 nM. This compound also gave a cytotoxic concentration (CC50) in the series “in vitro” of over 10000 nM.

In the case of `CC(C)(C)NS(=O)(=O)CC[C@@H]1O[C@@H]1[C@H](Cc1ccccc1)NC(=O)[C@@H](NC(=O)OCc1ccccc1)C(C)(C)S(C)(=O)=O` [Ex. 1, N-t-butyl-5S-[N-benzyloxycarbonyl-β-methanesulfonyl-L-valinyl]amino-(4R,3S)-epoxy-6-phenylhexanesulfonamide], the inactivation efficiency (kinact/KI) on HIV-1 protease is 1.67e+07 to 1.67e+08 M⁻¹ s⁻¹. In addition, the IC50 in the series on HIV-1 is 25 nM. Besides, in the series “in vitro”, the CC50 is over 10000 nM.

Consider `Cc1cn([C@H]2C[C@H](N=[N+]=[N-])[C@@H](CO)O2)c(=O)[nH]c1=O` [AZT, azidothymidine, reference compound], for which the IC50 with HIV-1 turned out to be 12 nM. Moreover, the CC50 in the series “in vitro” is over 10000 nM.

On to `CCN(c1ccccc1)S(=O)(=O)CC[C@@H]1O[C@@H]1[C@H](Cc1ccccc1)NC(=O)[C@H](CC(N)=O)NC(=O)c1ccc2ccccc2n1` [Ex. 7, N-ethyl-N-phenyl-5S-[N-(2-quinolinecarbonyl)-L-asparaginyl]amino-(4R,3S)-epoxy-6-phenylhexanesulfonaimide], for which the kinact/KI at HIV-1 protease was 1.67e+07 to 1.67e+08 M⁻¹ s⁻¹. The IC50 with HIV-1 amounted to 20 nM. Also, the CC50 in the series “in vitro” is over 10000 nM.

In the case of `CCN(C(C)C)S(=O)(=O)CC[C@@H]1O[C@@H]1[C@H](Cc1ccccc1)NC(=O)[C@@H](NC(=O)c1ccc2ccccc2n1)C(C)(C)S(C)(=O)=O` [Ex. 8, N-ethyl-N-isopropyl-5S-[N-(2-quinolinecarbonyl)-β-methanesulfonyl-L-valinyl]amino-(4R,3S)-epoxy-6-phenylhexanesulfonamide], the kinact/KI at HIV-1 protease is 1.67e+07 to 1.67e+08 M⁻¹ s⁻¹. The IC50 with HIV-1 is 10 nM. The same compound displayed a CC50 in “in vitro” of over 10000 nM.

Take `CC(C)(C)NS(=O)(=O)CC[C@@H]1O[C@@H]1[C@H](Cc1ccccc1)NC(=O)[C@H](CC(N)=O)NC(=O)c1ccc2ccccc2n1` [Ex. 3]: the second-order inactivation constant (kinact/KI) on HIV-1 protease was 1.67e+07 to 1.67e+08 M⁻¹ s⁻¹. Besides, in the series with HIV-1, the IC50 was found to be 10 nM. For the same compound, in the series “in vitro”, the CC50 was over 10000 nM.

As for `CN(C(C)(C)C)S(=O)(=O)CC[C@@H]1O[C@@H]1[C@H](Cc1ccccc1)NC(=O)[C@@H](NC(=O)COc1cccc2cnccc12)C(C)(C)S(C)(=O)=O` [Ex. 5, N-t-butyl-N-methyl-5S-(N-(5-isoquinolyloxymethylcarbonyl)-β-methanesulfonyl-L-valinyl]amino-(4R,3S)-epoxy-6-phenylhexanesulfonamide], the inactivation efficiency (kinact/KI) on HIV-1 protease is 1.67e+07 to 1.67e+08 M⁻¹ s⁻¹. For the same compound, in the series on HIV-1, the IC50 stood at 5 nM. This compound registered a CC50 in the series “in vitro” of over 10000 nM.

Turning to `CC(C)(C)NS(=O)(=O)CC[C@@H]1O[C@@H]1[C@H](Cc1ccccc1)NC(=O)[C@@H](NC(=O)c1ccc2ccccc2n1)C(C)(C)S(C)(=O)=O` [Ex. 2, N-t-butyl-5S-[N-(2-quinolinecarbonyl)-β-methanesulfonyl-L-valinyl]amino-(4R,3S)-epoxy-6-phenylhexanesulfonamide], the second-order inactivation constant (kinact/KI) at HIV-1 protease is 1.67e+07 to 1.67e+08 M⁻¹ s⁻¹. Also, the IC50 in the series on HIV-1 came to 30 nM. Moreover, the CC50 in the series “in vitro” was over 10000 nM.

`CN(C(C)(C)C)S(=O)(=O)CC[C@@H]1O[C@@H]1[C@H](Cc1ccccc1)NC(=O)[C@@H](NC(=O)OCc1ccccc1)C(C)(C)S(C)(=O)=O` [Ex. 4, N-t-butyl-N-methyl-5S-[N-benzyloxycarbonyl-β-methanesulfonyl-L-valinyl]amino-(4R,3S)-epoxy-6-phenylhexanesulfonamide]: the inactivation efficiency (kinact/KI) on HIV-1 protease is 1.67e+07 to 1.67e+08 M⁻¹ s⁻¹. Further, the IC50 with HIV-1 was 1 nM. In “in vitro”, this compound displayed a CC50 of over 10000 nM.
